Like-named read-outs stand apart in the source and are kept apart here.

The record followed here is patent publication US7429673B2, “TRPV1 agonists, formulations containing them and uses thereof” (priority 2004, dated 2008).

For test [1], the target named is T1, human TRPV1 (Homo sapiens, UniProt Q8NER1).
T1 construct: expressed in transfected cells; host or cells: HEK-293
Briefly: intracellular calcium in HEK-293 cells overexpressing human TRPV1. The conditions noted are these: 4 μM ionomycin as maximum reference. It is filed as cell-based.

Test [2] concerns Sprague Dawley rats. Briefly: in vivo test of induced urinary incontinence (partial urethral obstruction). On the set-up: species or system rat. The conditions noted are these: operated rats; for N^o of minctions per hour: 8 weeks after urethral obstruction, instilled in the bladder in ethanol at 50 nM for 30 min; for number of minctions per hour, result in words: instilled in the bladder at 50 nM for 30 min. The protocol: The activity of the compound of example 2 was also evaluated in rats through the in vivo test of induced urinary incontinence.
Sprague Dawley rats (250±10 g) were anaesthetized with chloral hydrate. The urinary bladder was opened through an incision along the abdomen median line, and the adipose tissue surrounding the urethra and ureters was removed. The proximal urethra was then tied up with non-absorbable surgery thread to create partial urethral obstruction.
On the treatment day, the compound of example 2, the compound prepared according to Appendino et al. and resiniferotoxin as the reference standard were solubilised in ethanol and instilled in the bladder at the concentration of 50 nM. The instillation lasted 30 min: during this period the infusion pump for the saline was turned off. After incubation, the bladder was emptied of any medicament solution, then the infusion pump was turned on again.

The mark [3] stands for this setting: in DMSO, read-out: pEC50 DMSO (pEC50 values for TPVR1) (converted).
Setting [4] is: in methanol, read-out: pEC50 methanol (pEC50 values for TPVR1) (converted).

T1 sequence (Q8NER1 whole entry): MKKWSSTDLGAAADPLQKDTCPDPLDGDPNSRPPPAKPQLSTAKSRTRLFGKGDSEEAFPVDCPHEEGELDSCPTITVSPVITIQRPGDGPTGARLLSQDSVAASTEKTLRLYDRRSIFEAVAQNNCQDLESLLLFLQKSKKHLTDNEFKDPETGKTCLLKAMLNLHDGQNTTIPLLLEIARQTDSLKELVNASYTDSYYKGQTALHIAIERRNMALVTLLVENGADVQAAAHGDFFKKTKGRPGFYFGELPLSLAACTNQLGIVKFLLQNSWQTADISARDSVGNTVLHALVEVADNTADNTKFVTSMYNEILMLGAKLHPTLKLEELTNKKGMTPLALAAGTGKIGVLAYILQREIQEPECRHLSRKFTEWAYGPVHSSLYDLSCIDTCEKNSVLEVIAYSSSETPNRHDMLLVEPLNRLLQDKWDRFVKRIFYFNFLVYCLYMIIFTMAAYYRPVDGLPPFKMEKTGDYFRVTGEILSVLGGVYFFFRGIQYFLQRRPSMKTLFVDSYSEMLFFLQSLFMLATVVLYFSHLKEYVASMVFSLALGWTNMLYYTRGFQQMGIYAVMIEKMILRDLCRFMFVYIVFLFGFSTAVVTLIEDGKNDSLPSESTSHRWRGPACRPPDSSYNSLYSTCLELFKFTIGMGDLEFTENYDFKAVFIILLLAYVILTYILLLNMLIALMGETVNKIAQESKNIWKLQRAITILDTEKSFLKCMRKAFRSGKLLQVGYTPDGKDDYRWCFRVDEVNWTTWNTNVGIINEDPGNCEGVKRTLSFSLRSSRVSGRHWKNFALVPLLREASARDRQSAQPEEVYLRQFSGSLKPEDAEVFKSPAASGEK

On to `CCCCCC[C@H](C/C=C\CCCCCCCC(=O)NCc1ccc(O)c(OC)c1)OC(C)=O`, for which, in test [1] (setting [3]), the EC50 is 0.501 nM. The “pEC50 methanol (pEC50 values for TPVR1)” value in test [1] (in methanol) worked out at 9.40 ± 0.18.
For `CCCCCC[C@H](C/C=C\CCCCCCCC(=O)NCc1ccc(O)c(OC)c1)OC(=O)Cc1ccccc1` [Compound of example 2, 12-Phenylacetyl Rinvanil], the EC50 in test [1] (pEC50 DMSO (pEC50 values for TPVR1), in DMSO) was 0.102 nM. The EC50 in test [1] (pEC50 methanol (pEC50 values for TPVR1), in methanol) was 0.0661 nM. Moreover, in test [2], the “N^o of minctions per hour” value turned out to be 19 ± 2 per hour and the “number of minctions per hour, result in words” value is listed as “remained similar to that of non-operated animals”.
With `CCCCCC[C@H](C/C=C\CCCCCCCC(=O)NCc1ccc(O)c(OC)c1)OC(=O)c1ccccc1` [Compound of example 9, 12-Benzoyl Rinvanil], the figures for the EC50 in test [1] (setting [3]) and in test [1] (setting [4]) were 0.129 nM and 0.288 nM, respectively.
With `CCCCCC[C@H](CC1CC1CCCCCCCC(=O)NCc1ccc(O)c(OC)c1)OC(=O)Cc1ccccc1` (some centres unmarked) [Compound of example 12, 9,10-Methylen-12-Phenylacetyl Rinvanil I], the figures for the EC50 in test [1] (setting [3]) and in test [1] (setting [4]) were 0.12 nM and 0.158 nM, respectively.
Turning to `CCCCCC[C@H](CC1OC1CCCCCCCC(=O)NCc1ccc(O)c(OC)c1)OC(=O)Cc1ccccc1` (some centres unmarked) [Compound of example 15, 9,10-Epoxy-12-Phenylacetyl Rinvanil], the EC50 in test [1] (setting [3]) was 5.37 nM; in test [1] (setting [4]), 4.07 nM.
In the case of `C=C(C)[C@]12C[C@@H](C)[C@@]34O[C@](Cc5ccccc5)(O[C@@H]1[C@@H]3C=C(COC(=O)Cc1ccc(O)c(OC)c1)C[C@]1(O)C(=O)C(C)=C[C@@H]41)O2` [Resiniferotoxin, resiniferotoxin, reference compound], in test [2], the “N^o of minctions per hour” value came to 17 ± 2 per hour and the “number of minctions per hour, result in words” value is “remained similar to that of non-operated animals”.
